Results: patent US6730672B2, “Aminoheterocyclic derivatives as antithrombotic or anticoagulant agents” (Zeneca Limited, priority 1994, dated 2004)

molecular target: human thrombin (Homo sapiens, UniProt P00734); test: Measurement of Thrombin Inhibition (chromogenic substrate S-2238); format: biochemical; settings: test b), read-out: IC50 against thrombin
Text: b) Measurement of Thrombin Inhibition
The procedure of method a) was repeated except that human thrombin (0.005 Units/ml) and the chromogenic substrate S-2238 (KabiVitum AB) were employed.

With `O=C(C1CCN(c2ccncc2)CC1)N1CCN(S(=O)(=O)c2ccc(-c3ccc(Cl)cc3)cc2)CC1` [Example 41, Compound No. 3, 1-(4′-chloro-4-biphenylylsulphonyl)-4-[1-(4-pyridyl)-piperidin-4-ylcarbonyl]piperazine] the IC50 was 83 µM.

test system: not given; test: not given; settings: not given

First: Cl.O=C(c1ccc(NS(=O)(=O)c2ccc(-c3ccc(Br)cc3)cc2)cc1)N1CCN(c2ccncc2)CC1
Second: O=C(c1ccc(NS(=O)(=O)/C=C/c2ccc(Cl)cc2)cc1)N1CCN(c2ccncc2)CC1 [Example 89, N-{4-[4-(4-pyridyl)piperazin-1-ylcarbonyl]phenyl}-(E)-4-chlorostyrenesulphonamide]
The melting point of the first is lower: 201 to 205 °C for the first, 207 to 209 °C for the second.

Compared with `O=C(C1CCN(c2ccncc2)CC1)N1CCN(S(=O)(=O)c2ccc3ccccc3c2)CC1` [Example 2, 1-(2-naphthylsulphonyl)-4-[1-(4-pyridyl)piperidin-4-ylcarbonyl]piperazine], `O=C(C1CCN(c2ccncc2)CC1)N1CCCN(S(=O)(=O)c2ccc3ccccc3c2)CC1` [Example 49, 1-(2-naphthylsulphonyl)-4-[1-(4-pyridyl)piperidin-4-ylcarbonyl]-1,4-diazepane] is higher in melting point: 172 to 173 °C for the first, 178 to 180 °C for the second.

First: O=C(CNS(=O)(=O)c1ccc2ccccc2c1)NC(CNC(=O)N1CCN(c2ccncc2)CC1)C(=O)N1CCCCC1 (stereo not drawn) [Example 3, 2-(2-naphthalenesulphonamido)-N-{1-piperidinocarbonyl-2-[4-(4-pyridyl)piperazin-1-ylcarbonylamino]-ethyl}acetamide]
Second: O=C(CNS(=O)(=O)c1ccc2ccccc2c1)N[C@@H](CC(=O)N1CCN(c2ccncc2)CC1)C(=O)N1CCCCC1 [Example 18, 2-(2-naphthalenesulphonamido)-N-{(1S)-1-(piperidinocarbonyl)-2-[4-(4-pyridyl)piperazin-1-ylcarbonyl]ethyl}-acetamide]
The melting point of the first is higher: 223 to 226 °C for the first, 201 to 203 °C for the second.

Compared with `O=C(CC1CCN(c2ccncc2)CC1)NCC(NC(=O)CNS(=O)(=O)c1ccc2ccccc2c1)C(=O)N1CCCCC1` (stereo not drawn) [Example 4, 2-(2-naphthalenesulphonamido)-N-(1-piperidinocarbonyl-2-{2-[1-(4-pyridyl)piperidin-4-yl]acetamido}ethyl)acetamide], `O=C(CNS(=O)(=O)c1ccc2ccccc2c1)NCC(NC(=O)C1CCN(c2ccncc2)CC1)C(=O)N1CCCCC1` (stereo not drawn) [Example 11, 2-(2-naphthalenesulphonamido)-N-{2-piperidinocarbonyl-2-[1-(4-pyridyl)piperidin-4-ylcarbonylamino]ethyl}acetamide] is higher in melting point: 148 to 149 °C for the first, 200 to 202 °C for the second.

First: CCOC(=O)C(CNC(=O)C1CCN(c2ccncc2)CC1)NC(=O)CNS(=O)(=O)c1ccc2ccccc2c1 (stereo not drawn) [Example 6, N-{1-ethoxycarbonyl-2-[1-(4-pyridyl)-piperidin-4-ylcarbonylamino]ethyl}-2-(2-naphthalenesulphonamido)-acetamide]
Second: O=C(CNS(=O)(=O)c1ccc2ccccc2c1)NCCNC(=O)C1CCN(c2ccncc2)CC1 [Example 30, 2-(2-naphthalenesulphonamido)-N-{2-[1-(4-pyridyl)piperidin-4-ylcarbonylamino]ethyl}acetamide]
The melting point of the first is higher: 142 to 145 °C for the first, 107 to 109 °C for the second.

First: O=C(CCNS(=O)(=O)c1ccc2ccccc2c1)NC(CNC(=O)C1CCN(c2ccncc2)CC1)C(=O)N1CCCCC1 (stereo not drawn) [Example 20, 3-(2-naphthalenesulphonamido)-N-{1-(piperidinocarbonyl)-2-[1-(4-pyridyl)piperidin-4-ylcarbonylamino]ethyl}propionamide]
Second: Cc1ccc(NC(=O)NC(CNC(=O)C2CCN(c3ccncc3)CC2)C(=O)N2CCCCC2)cc1 (stereo not drawn) [Example 22, N-{2-piperidinocarbonyl-2-[3-(4-tolyl)ureido]ethyl}-1-(4-pyridyl)-piperidine-4-carboxamide]
The melting point of the first is lower: 201 to 203 °C for the first, 252 to 253 °C for the second.

First: O=C(CNS(=O)(=O)c1ccc2ccccc2c1)NCCNC(=O)C1CCN(c2ccncn2)CC1 [Example 32, 2-(2-naphthalenesulphonamido)-N-{2-[1-(4-pyrimidinyl)piperidin-4-ylcarbonylamino]ethyl}acetamide]
Second: Cc1cc(N2CCC(C(=O)NCCNC(=O)CNS(=O)(=O)c3ccc4ccccc4c3)CC2)nc(N)n1 [Example 34, N-{2-[1-(2-amino-6-methylpyrimidin-4-yl)piperidin-4-ylcarbonylamino]ethyl}-2-(2-naphthalenesulphonamido)acetamide]
The melting point of the first is lower: 178 to 179 °C for the first, 225 to 226 °C for the second.

First: O=C(O)C1CN(C(=O)C2CCN(c3ccncc3)CC2)CCN1S(=O)(=O)c1ccc2ccccc2c1 (stereo not drawn) [Example 43, 1-(2-naphthylsulphonyl)-4-[1-(4-pyridyl)piperidin-4-ylcarbonyl]-piperazine-2-carboxylic acid]
Second: O=C(C1CCN(c2ccncc2)CC1)N1CCN(S(=O)(=O)c2ccc3ccccc3c2)C(Cc2ccccc2)C1 (stereo not drawn) [Example 66, 2-benzyl-1-(2-naphthylsulphonyl)-4-[1-(4-pyridyl)piperidin-4-ylcarbonyl]piperazine]
The melting point of the first is higher: 188 to 193 °C for the first, 186 to 188 °C for the second.

First: O=C(N1CCN(c2ccncc2)CC1)N1CCN(S(=O)(=O)c2ccc3ccccc3c2)CC1 [Example 50, 1-(2-naphthylsulphonyl)-4-[4-(4-pyridyl)-piperazin-1-ylcarbonyl]piperazine]
Second: O=C(C1CCN(S(=O)(=O)c2ccc3cc(Br)ccc3c2)CC1)N1CCN(c2ccncc2)CC1 [Example 92, 1-[1-(6-bromonaphth-2-ylsulphonyl)piperidin-4-ylcarbonyl]-4-(4-pyridyl)piperazine]
The melting point of the first is lower: 210 to 212 °C for the first, 229 to 230 °C for the second.

Compared with `O=C(C1CCN(c2ccncn2)CC1)N1CCN(S(=O)(=O)c2ccc3ccccc3c2)CC1` [Example 55, 1-(2-naphthylsulphonyl)-4-[1-(4-pyrimidinyl)piperidin-4-ylcarbonyl]-piperazine], `O=C(C1CCN(c2ccncn2)CC1)N1CCN(S(=O)(=O)c2ccc3cc(Cl)ccc3c2)CC1` [Example 69, 1-(6-chloronaphth-2-ylsulphonyl)-4-[1-(4-pyrimidinyl)-piperidin-4-ylcarbonyl]piperazine] is higher in melting point: 203 to 205 °C for the first, 218 to 219 °C for the second.

First: O=C(C1CCN(c2ccncn2)CC1)N1CCN(S(=O)(=O)/C=C/c2ccc(Cl)cc2)CC1 [Example 57, 1-[(E)-4-chlorostyrylsulphonyl]-4-[1-(4-pyrimidinyl)piperidin-4-ylcarbonyl]piperazine]
Second: Nc1nccc(N2CCC(C(=O)N3CCN(S(=O)(=O)c4ccc5cc(Cl)ccc5c4)CC3)CC2)n1 [Example 70, 4-[1-(2-aminopyrimidin-4-yl)piperidin-4-ylcarbonyl]-1-(6-chloronaphth-2-ylsulphonyl)piperazine]
The melting point of the first is lower: 209 to 210 °C for the first, 265 to 267 °C for the second.

First: Cc1ccc(-c2ccc(S(=O)(=O)N3CCN(C(=O)C4CCN(c5ccncc5)CC4)CC3)cc2)cc1 [Example 58, 1-(4′-methylbiphenyl-4-ylsulphonyl)-4-[1-(4-pyridyl)piperidin-4-ylcarbonyl]piperazine]
Second: O=C(C1CCN(c2ccncc2)CC1)N1CCN(S(=O)(=O)c2ccc(-c3ccccn3)cc2)CC1 [Example 60, 1-[4-(2-pyridyl)phenylsulphonyl]-4-[1-(4-pyridyl)piperidin-4-ylcarbonyl]piperazine]
The melting point of the first is lower: 213 to 217 °C for the first, 224 to 226 °C for the second.

Compared with `O=C(C1CCN(c2nc(Cl)nc(Cl)n2)CC1)N1CCN(S(=O)(=O)c2ccc3cc(Cl)ccc3c2)CC1` [Example 73, 1-(6-chloronaphth-2-ylsulphonyl)-4-[1-(4,6-dichloro-1,3,5-triazin-2-yl)piperidin-4-ylcarbonyl]piperazine], `Cc1cc(N2CCC(C(=O)N3CCN(S(=O)(=O)c4ccc5cc(Cl)ccc5c4)CC3)CC2)nc(N)n1` [Example 86, 4-[1-(2-amino-6-methylpyrimidin-4-yl)piperidin-4-ylcarbonyl]-1-(6-chloronaphth-2-ylsulphonyl)piperazine] is lower in melting point: 230 to 233 °C for the first, 210 to 212 °C for the second.

First: CCOC(=O)C1CN(S(=O)(=O)c2ccc3cc(Br)ccc3c2)CCN1C(=O)C1CCN(c2ccncc2)CC1 (stereo not drawn) [Example 82, 4-(6-bromonaphth-2-ylsulphonyl)-2-ethoxycarbonyl-1-[1-(4-pyridyl)-piperidin-4-ylcarbonyl]piperazine]
Second: O=C(C1CN(S(=O)(=O)c2ccc3cc(Br)ccc3c2)CCN1C(=O)C1CCN(c2ccncc2)CC1)N1CCOCC1 (stereo not drawn) [Example 84, 4-(6-bromonaphth-2-ylsulphonyl)-2-morpholinocarbonyl-1-[1-(4-pyridyl)-piperidin-4-ylcarbonyl]piperazine]
The melting point of the first is lower: 117 to 121 °C for the first, 235 to 237 °C for the second.

In the case of `O=C(CNS(=O)(=O)c1ccc2ccccc2c1)NC(CNC(=O)C1CCN(c2ccncc2)CC1)C(=O)O` (stereo not drawn) [Example 9, 2-[2-(2-naphthalenesulphonamido)acetamido]-3-[1-(4-pyridyl)piperidin-4-ylcarbonylamino]propionic acid], the melting point is reported as 108 to 111 °C (dec.).
For `O=C(O)C1CN(S(=O)(=O)c2ccc3ccccc3c2)CCN1C(=O)C1CCN(c2ccncc2)CC1` (stereo not drawn) [Example 61, 2-carboxy-4-(2-naphthylsulphonyl)-1-[1-(4-pyridyl)piperidin-4-ylcarbonyl]piperazine], the melting point was 225 to 228 °C (dec.).
With `O=C(O)C1CN(S(=O)(=O)c2ccc3cc(Br)ccc3c2)CCN1C(=O)C1CCN(c2ccncc2)CC1` (stereo not drawn) [Example 83, 4-(6-bromonaphth-2-ylsulphonyl)-2-carboxy-1-[1-(4-pyridyl)piperidin-4-ylcarbonyl]piperazine] the melting point was 216 to 222 °C (dec.).

molecular target: human Factor Xa (Homo sapiens, UniProt P00742); test: Measurement of Factor Xa Inhibition (chromogenic substrate S-2765); format: biochemical; settings: test a), pH7.5, 37° C., read-out: IC50 against Factor Xa
Sequence (P00742 235-488 limits assumed): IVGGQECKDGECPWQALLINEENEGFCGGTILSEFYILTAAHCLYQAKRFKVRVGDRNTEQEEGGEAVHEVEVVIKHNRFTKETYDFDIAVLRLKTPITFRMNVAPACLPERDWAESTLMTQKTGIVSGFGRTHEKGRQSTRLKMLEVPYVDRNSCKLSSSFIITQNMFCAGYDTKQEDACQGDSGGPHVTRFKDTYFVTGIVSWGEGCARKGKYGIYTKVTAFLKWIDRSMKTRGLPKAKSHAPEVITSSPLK
Sequence (P00742 41-179 partner limits assumed): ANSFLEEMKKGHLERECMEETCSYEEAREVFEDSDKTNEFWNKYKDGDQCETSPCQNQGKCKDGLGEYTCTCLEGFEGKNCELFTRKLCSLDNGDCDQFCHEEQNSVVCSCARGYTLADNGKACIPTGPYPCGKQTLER
Experimental: a) Measurement of Factor Xa Inhibition
An in vitro assay system was carried out based on the method of Kettner et al., J. Biol. Chem., 1990, 265, 18289-18297, whereby various concentrations of a test compound were dissolved in a pH7.5 buffer containing 0.5% of polyethylene glycol and incubated at 37° C. with human Factor Xa (0.001 Units/ml, 0.3 ml) for 15 minutes. The chromogenic substrate S-2765 (KabiVitum AB, 20 μM) was added and the mixture was incubated at 37° C. for 20 minutes whilst the absorbance at 405 nm was measured. The maximum reaction velocity (Vmax) was determined and compared with that of a control sample containing no test compound. Inhibitor potency was expressed as an IC50 value.

`O=C(C1CCN(c2ccncc2)CC1)N1CCN(S(=O)(=O)c2ccc(-c3ccc(Cl)cc3)cc2)CC1` [Example 41, Compound No. 3, 1-(4′-chloro-4-biphenylylsulphonyl)-4-[1-(4-pyridyl)-piperidin-4-ylcarbonyl]piperazine] gave an IC50 of 0.01 µM.
